Measurements taken from ChEMBL document CHEMBL1141170, “Rational approach to discover multipotent anti-Alzheimer drugs” (J Med Chem, 2005).

Tests used:
Homo sapiens [1] = species: Homo sapiens; test: Percentage increase of intracellular reactive oxygen species in neuronal cells at 0.5 uM; assay type: functional
Homo sapiens [2] = species: Homo sapiens; test: Percentage increase of intracellular reactive oxygen species in neuronal cells at 10 uM; Cytotoxicity; assay type: functional
Homo sapiens [3] = species: Homo sapiens; test: Percentage increase of intracellular reactive oxygen species in neuronal cells at 0.1 uM; assay type: functional
Homo sapiens [4] = species: Homo sapiens; test: Percentage increase of intracellular reactive oxygen species in neuronal cells at 1 uM; assay type: functional
Homo sapiens [5] = species: Homo sapiens; test: Percentage increase of intracellular reactive oxygen species in neuronal cells at 50 uM; Cytotoxicity; assay type: functional
Homo sapiens [6] = species: Homo sapiens; test: Percentage increase of intracellular reactive oxygen species in neuronal cells at 5 uM; assay type: functional
Homo sapiens [7] = species: Homo sapiens; test: Percentage increase of intracellular reactive oxygen species in neuronal cells at 0 uM; assay type: functional
Cholinesterase = Cholinesterase (Homo sapiens, UniProt P06276)
Chain of Cholinesterase (P06276 whole entry): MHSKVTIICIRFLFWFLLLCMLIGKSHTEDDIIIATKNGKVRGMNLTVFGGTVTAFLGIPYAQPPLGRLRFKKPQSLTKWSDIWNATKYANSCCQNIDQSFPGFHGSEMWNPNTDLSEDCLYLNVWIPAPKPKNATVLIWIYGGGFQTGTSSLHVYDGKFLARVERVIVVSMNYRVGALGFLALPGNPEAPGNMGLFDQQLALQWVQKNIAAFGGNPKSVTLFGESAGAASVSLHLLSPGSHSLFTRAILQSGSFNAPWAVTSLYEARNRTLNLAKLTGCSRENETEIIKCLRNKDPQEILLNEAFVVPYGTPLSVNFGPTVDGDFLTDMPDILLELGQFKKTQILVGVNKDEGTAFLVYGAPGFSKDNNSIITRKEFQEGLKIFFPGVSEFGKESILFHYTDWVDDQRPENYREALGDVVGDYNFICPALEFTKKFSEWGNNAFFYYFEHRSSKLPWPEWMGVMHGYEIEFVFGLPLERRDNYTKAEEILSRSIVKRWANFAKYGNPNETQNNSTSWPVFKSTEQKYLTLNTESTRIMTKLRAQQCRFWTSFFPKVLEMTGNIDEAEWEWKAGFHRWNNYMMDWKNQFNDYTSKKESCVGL
Description: Inhibitory concentration against human recombinant butyrylcholinesterase

Acetylcholinesterase = Acetylcholinesterase (Homo sapiens, UniProt P22303)
Chain of Acetylcholinesterase (P22303 whole entry): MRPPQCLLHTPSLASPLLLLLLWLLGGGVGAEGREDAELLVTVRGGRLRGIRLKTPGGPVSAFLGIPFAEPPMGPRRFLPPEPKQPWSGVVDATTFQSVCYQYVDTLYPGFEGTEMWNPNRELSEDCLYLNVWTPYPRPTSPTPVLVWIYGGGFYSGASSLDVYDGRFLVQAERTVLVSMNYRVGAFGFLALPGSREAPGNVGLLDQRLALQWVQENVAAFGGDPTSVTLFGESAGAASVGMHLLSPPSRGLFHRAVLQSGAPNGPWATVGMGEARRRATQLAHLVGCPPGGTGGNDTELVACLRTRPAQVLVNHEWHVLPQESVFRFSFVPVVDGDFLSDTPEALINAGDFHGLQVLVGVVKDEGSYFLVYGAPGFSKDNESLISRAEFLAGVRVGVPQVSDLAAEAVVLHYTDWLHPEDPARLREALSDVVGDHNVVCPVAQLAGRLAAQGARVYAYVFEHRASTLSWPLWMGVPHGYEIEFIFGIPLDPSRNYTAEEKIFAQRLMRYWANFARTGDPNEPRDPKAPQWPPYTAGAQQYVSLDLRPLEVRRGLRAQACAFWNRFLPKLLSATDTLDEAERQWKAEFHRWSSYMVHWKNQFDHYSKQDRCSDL
Description: Inhibitory concentration against human recombinant acetylcholinesterase

Homo sapiens [8] = species: Homo sapiens; test: Percentage increase of intracellular reactive oxygen species in neuronal cells at 50 uM; assay type: functional
Homo sapiens [9] = species: Homo sapiens; test: Percentage increase of intracellular reactive oxygen species in neuronal cells at 10 uM; assay type: functional

| SMILES | Activity (Homo sapiens [1]) [%] | Activity (Homo sapiens [2]) | Activity (Homo sapiens [3]) [%] | Activity (Homo sapiens [4]) [%] | Activity (Homo sapiens [5]) | Activity (Homo sapiens [6]) [%] | Activity (Homo sapiens [7]) [%] | IC50 (Cholinesterase) [nM] | IC50 (Acetylcholinesterase) [nM] | Activity (Homo sapiens [8]) [%] | Activity (Homo sapiens [9]) [%] |
| --- | --- | --- | --- | --- | --- | --- | --- | --- | --- | --- | --- |
| NCCCNc1c2c(nc3cc(Cl)ccc13)CCCC2 | 99.67 | Toxic | 99.5 | 96.67 | Toxic | 82.5 | 86 | 2580 |  |  |  |
| Nc1c2c(nc3cc(Cl)ccc13)CC(CNC(=O)CCCCC1CCSS1)CC2 (configuration not stated) |  |  |  |  |  |  |  | 329 | 1090 |  |  |
| O=C(CCCCC1CCSS1)NCCCNc1c2c(nc3cc(Cl)ccc13)CCCC2 (racemic) [LIPOCRINE] | 95 |  | 88.75 | 77 |  | 61.67 | 86 |  |  | 30.5 | 51.25 |
